According to patent US6391919B1, “Bis-amino acid sulfonamides containing substituted benzyl amines HIV protease inhibitors” (Bristol-Myers Squibb Pharma Company, priority 2000, dated 2002):
Converted amounts (≈) assume the structure as drawn.

System: HIV-1 (RF)
Test: HIV RNA assay: microplate based compound evaluation in HIV-1 infected MT-2 cells
Type: cell-based
Conditions: Human immunodeficiency virus 1, MT2, 72 h; HIV-1 (RF) infected MT-2 cells, 3 days of culture; virus dilutions selected to standardize the inoculum to this value; read-out: IC90 value (concentration of compound required to reduce the HIV RNA level by 90%)
Method: Plasmid pDAB 72 containing both gag and pol sequences of BH 10 (bp 113-1816) cloned into PTZ 19R was prepared according to Erickson-Viitanen et al. AIDS Research and Human Retroviruses 1989, 5, 577. The plasmid was linearized with Bam HI prior to the generation of in vitro RNA transcripts using the Riboprobe Gemini system 11 kit (Promega) with T7 RNA polymerase. Synthesized RNA was purified by treatment with RNase free DNAse (Promega), phenol-chloroform extraction, and ethanol precipitation. RNA transcripts were dissolved in water, and stored at −70° C. The concentration of RNA was determined from the A260.
Biotinylated capture probes were purified by HPLC after synthesis on an Applied Biosystems (Foster City, Calif.) DNA synthesizer by addition of biotin to the 5′ terminal end of the oligonucleotide, using the biotin-phosphoramidite reagent of Cocuzza, Tet. Lett. 1989, 30, 6287. […]
MT-2 and MTA cells were maintained in RPM 1640 supplemented with 5% fetal calf serum (FCS) for MT-2 cells or 10% FCS for MTA cells, 2 mM L-glutamine and 50 μg/mL gentamycin, all from Gibco. […] Infectious titers of HIV-1 (RF) stocks were 1-3×10^7 PFU (plaque forming units)/mL as measured by plaque assay on MT-2 cells (see below). […]

IC90: 0.2 µg/mL (≈ 0.947 µM)
Structure (SMILES): Nc1ccn([C@H]2CC[C@@H](CO)O2)c(=O)n1 [ddC, dideoxycytidine]
